Test results from ChEMBL document CHEMBL5329203, “Target discovery of bioactive natural products with native-compound-coupled CNBr-activated Sepharose 4B beads (NCCB): Applications, mechanisms and outlooks” (Bioorg Med Chem, 2023).

Columns and labels:
[1] = target: T1, Latent membrane protein 1 (Human herpesvirus 4 (strain B95-8), UniProt P03230); assay: Binding affinity to Epstein Barr virus LMP1 assessed as dissociation constant; set-up: species or system human gammaherpesvirus 4
T1 sequence (P03230 whole entry): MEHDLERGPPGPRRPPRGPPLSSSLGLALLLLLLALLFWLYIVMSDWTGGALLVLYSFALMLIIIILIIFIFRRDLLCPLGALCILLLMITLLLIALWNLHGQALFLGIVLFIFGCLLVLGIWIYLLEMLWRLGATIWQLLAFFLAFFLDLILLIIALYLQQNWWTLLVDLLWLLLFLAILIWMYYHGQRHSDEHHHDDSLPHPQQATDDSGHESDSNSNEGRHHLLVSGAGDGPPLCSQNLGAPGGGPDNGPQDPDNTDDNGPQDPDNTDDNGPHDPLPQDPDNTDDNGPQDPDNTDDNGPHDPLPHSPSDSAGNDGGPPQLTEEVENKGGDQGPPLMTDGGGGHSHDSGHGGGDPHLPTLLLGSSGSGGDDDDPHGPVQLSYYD

[2] = target: Tyrosine-protein kinase Fyn (Homo sapiens, UniProt P06241); assay: Binding affinity to Fyn (unknown origin) assessed as dissociation constant
Chain of Tyrosine-protein kinase Fyn (P06241 whole entry): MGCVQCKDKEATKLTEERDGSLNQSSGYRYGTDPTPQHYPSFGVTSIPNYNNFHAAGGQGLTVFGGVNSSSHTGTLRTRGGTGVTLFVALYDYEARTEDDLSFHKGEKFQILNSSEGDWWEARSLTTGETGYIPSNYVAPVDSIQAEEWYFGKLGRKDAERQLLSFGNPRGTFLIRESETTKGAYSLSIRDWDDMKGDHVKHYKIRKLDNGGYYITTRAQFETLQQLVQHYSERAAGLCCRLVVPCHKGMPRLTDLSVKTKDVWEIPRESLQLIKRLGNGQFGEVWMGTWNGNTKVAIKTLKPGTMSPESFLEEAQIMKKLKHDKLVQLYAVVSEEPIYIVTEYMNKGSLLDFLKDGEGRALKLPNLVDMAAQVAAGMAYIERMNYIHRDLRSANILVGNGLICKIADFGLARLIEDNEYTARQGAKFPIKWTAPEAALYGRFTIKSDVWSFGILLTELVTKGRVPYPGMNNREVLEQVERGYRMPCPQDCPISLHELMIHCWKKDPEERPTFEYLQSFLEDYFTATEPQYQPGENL

[3] = target: Small ribosomal subunit protein uS2 (Homo sapiens, UniProt P08865); assay: Binding affinity to His-tagged Laminin receptor in human A549 cells assessed as dissociation constant by surface plasmon resonance assay

With `O=C(O[C@@H]1Cc2c(O)cc(O)cc2O[C@@H]1c1cc(O)c(O)c(O)c1)c1cc(O)c(O)c(O)c1` [EPIGALOCATECHIN GALLATE] as the compound, how does the Kd [1] read?
The Kd was 360 nM.

What about the Kd [2] of the same compound?
Its Kd is 367 nM.

And the Kd [3]?
Its Kd is 39.9 nM.
